Literature values, collected in patent US6751290B2, “Radiographic assessment of tissue after exposure to a compound” (Veritas Pharmaceuticals, Inc., priority 1998, dated 2004).

Details: experimental logP values, commonly used non-ionic radiographic contrast agents (Hansch et al. 1995)

Point of comparison: `COCC(=O)Nc1c(I)c(C(=O)NCC(O)CO)c(I)c(C(=O)N(C)CC(O)CO)c1I` (stereo not drawn) [Iopromide], logP −2.05. Against it:
- CC(=O)N(CC(O)CO)c1c(I)c(C(=O)NCC(O)CO)c(I)c(C(=O)NCC(O)CO)c1I (stereo not drawn) [Iohexol] — lower, −3.05
- CC(=O)Nc1c(I)c(C(=O)N[C@H]2C(O)O[C@H](CO)[C@@H](O)[C@@H]2O)c(I)c(N(C)C(C)=O)c1I (stereo partly drawn) [Metrizamide] — within 0.2 log units, −1.86
